From US20240228468A1, “N-(6-((OCTAHYDROCYCLOPENTA[C]PYRROL-5-YI)AMINO)PYRIDAZIN-3-YL)PHENYL)CARBOXAMIDE AND (6- ((OCTAHYDROCYCLOPENTA[C]PYRROL-5-YL)AMINO)PYRIDAZIN-3-YL)BENZAMIDE DERIVATIVES AS MACHR M4 ANTAGONISTS FOR THE TREATMENT OF NEURODEGENERATIVE DISORDERS” (Vanderbilt University, priority 2021, published 2024) come the findings set out here.

In this experiment the target is T1, Human M4 (Homo sapiens, UniProt P08173).
T1 construct: expressed in transfected cells; host or cells: CHO-K1 (ATCC), co-transfected with chimeric G protein Gqi5
T1 sequence (P08173 1-479): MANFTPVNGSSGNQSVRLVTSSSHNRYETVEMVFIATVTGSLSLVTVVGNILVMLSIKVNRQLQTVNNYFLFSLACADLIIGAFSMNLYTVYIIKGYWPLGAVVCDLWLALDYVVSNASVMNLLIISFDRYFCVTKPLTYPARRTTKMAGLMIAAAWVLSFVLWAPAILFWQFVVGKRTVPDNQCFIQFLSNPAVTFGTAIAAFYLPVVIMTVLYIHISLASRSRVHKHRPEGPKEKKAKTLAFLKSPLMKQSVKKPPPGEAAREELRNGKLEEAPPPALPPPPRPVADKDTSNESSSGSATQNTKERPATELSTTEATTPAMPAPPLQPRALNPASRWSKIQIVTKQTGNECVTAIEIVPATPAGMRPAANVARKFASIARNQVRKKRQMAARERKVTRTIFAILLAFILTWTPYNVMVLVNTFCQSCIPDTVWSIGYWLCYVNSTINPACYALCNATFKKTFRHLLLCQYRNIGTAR
Put plainly: mAChR M4 cell-based functional assay (calcium flux, antagonism of EC80 acetylcholine response). The note with it: for IC50: concentration-dependent decrease of the response elicited by an EC80 concentration of acetylcholine. How it is done:
Human or rat M4 cDNA, along with the chimeric G protein Gqi5, were transfected into Chinese hamster ovary (CHO-K1) cells purchased from the American Type Culture Collection using Lipofectamine2000. M4/Gqi5/CHO cells were grown in Ham's F-12 medium containing 10% heat-inactivated fetal bovine serum (FBS), 20 mM HEPES, 500 μg/mL G418 sulfate, and 200 μg/mL Hygromycin B.
For high throughput measurement of agonist-evoked increases in intracellular calcium, CHO-K1 cells stably expressing muscarinic receptors were plated in growth medium lacking G418 and hygromycin at 15,000 cells/20 μL/well in Greiner 384-well black-walled, tissue culture (TC)-treated, clear-bottom plates (VWR). Cells were incubated overnight at 37° C. and 5% CO2. The next day, cells were washed using an ELX 405 (BioTek) with assay buffer; the final volume was then aspirated to 20 μL. Next, 20 μL of a 2.3 μM stock of Fluo-4/acetoxymethyl ester (Invitrogen, Carlsbad, CA), prepared as a 2.3 mM stock in DMSO and mixed in a 1:1 ratio with 10% (w/v) Pluronic F-127 and diluted in assay buffer, was added to the wells and the cell plates were incubated for 50 min at 37° C. and 5% CO2. Dye was removed by washing with the ELX 405 and the final volume was aspirated to 20 μL. Compound master plates were formatted in a 10 point concentration-response curve (CRC) format (1:3 dilutions) in 100% DMSO with a starting concentration of 10 or 1 mM using a BRAVO liquid handler (Agilent). Test compound CRCs were then transferred to daughter plates (240 nL) using the Echo acoustic plate reformatter (Labcyte, Sunnyvale, CA) and then diluted into assay buffer (40 μL) to a 2× stock using a Thermo Fisher Combi (Thermo Fisher Scientific, Waltham, MA).
Calcium flux was measured using the Functional Drug Screening System (FDSS) 6000 or 7000 (Hamamatsu Corporation, Tokyo, Japan) as an increase in the fluorescent static ratio. Compounds were applied to cells (20 μL, 2×) using the automated system of the FDSS at 2 seconds into the protocol and the data were collected at 1 Hz. At 143 s, 10 μL of an EC20 concentration of the muscarinic receptor agonist acetylcholine was added (5×), followed by the addition of 12 μL of an EC80 concentration of acetylcholine at the 268 s time point (5×). Agonist activity was analyzed as a concentration-dependent increase in calcium mobilization upon compound addition. Positive allosteric modulator activity was analyzed as a concentration-dependent increase in the EC20 acetylcholine response. Antagonist activity was analyzed as a concentration-dependent decrease in the EC80 acetylcholine response; for the purposes of the tables herein, an IC50 (inhibitory concentration 50) was calculated as a concentration-dependent decrease of the response elicited by an EC80 concentration of acetylcholine. Concentration-response curves were generated using a four-parameter logistical equation in XLFit curve fitting software (IDBS, Bridgewater, NJ) for Excel (Microsoft, Redmond, WA) or Prism (GraphPad Software, Inc., San Diego, CA) or the Dotmatics software platform (Dotmatics, Bishop's Stortford, UK).
Compounds were synthesized as described above. Activity (IC50 and Emin) was determined in the mAChR M4 cell-based functional assay as described above and the data are shown in Table 2.

The mark [1] stands for this setting: M4/Gqi5/CHO-K1 cells, % ACh maximum at 30 μM, read-out: Human M4 Emin (% ACh maximum at 30 μM).

Structures are written as SMILES. Read-outs that look alike come from different tables or passages of the source.

With `CC(=O)Nc1ccc(-c2ccc(N[C@H]3C[C@@H]4CN(Cc5ccccc5F)C[C@@H]4C3)nn2)cc1` [Compound A1, N-(4-(6-(((3aR,5s,6aS)-2-(2-fluorobenzyl)octahydrocyclopenta[c]pyrrol-5-yl)amino)pyridazin-3-yl)phenyl)acetamide], the remaining activity at 30 µM under setting [1] was found to be 4%. In addition, for the setting “M4/Gqi5/CHO-K1 cells”, the IC50 is 62 nM.
With `[2H]C([2H])([C@@H]1CCCOC1)N1C[C@H]2C[C@H](Nc3ccc(-c4cc(F)cc(C(=O)NC)c4)nn3)C[C@H]2C1` [Compound A85, 3-fluoro-N-methyl-5-(6-(((3aR,5s,6aS)-2-(((S)-tetrahydro-2H-pyran-3-yl)methyl-d2)octahydrocyclopenta[c]pyrrol-5-yl)amino)pyridazin-3-yl)benzamide], under setting [1], the remaining activity at 30 µM stood at 5%. Further, the IC50 (M4/Gqi5/CHO-K1 cells) came to 84 nM.
The corresponding values for `[2H]C([2H])(C1CCOCC1)N1C[C@H]2C[C@H](Nc3ccc(-c4cc(F)c(C(N)=O)c(F)c4F)nn3)C[C@H]2C1` [Compound A65, 2,3,6-trifluoro-4-(6-(((3aR,5s,6aS)-2-((tetrahydro-2H-pyran-4-yl)methyl-d2)octahydrocyclopenta[c]pyrrol-5-yl)amino)pyridazin-3-yl)benzamide] are 5% and 6.3 nM.
`CC(=O)Nc1ccc(-c2ccc(N[C@H]3C[C@@H]4CN(Cc5ccc(F)cc5)C[C@@H]4C3)nn2)cc1` [Compound A3, N-(4-(6-(((3aR,5s,6aS)-2-(4-fluorobenzyl)octahydrocyclopenta[c]pyrrol-5-yl)amino)pyridazin-3-yl)phenyl)acetamide]: under setting [1], the remaining activity at 30 µM was 2%. In addition, the IC50 (M4/Gqi5/CHO-K1 cells) was found to be 10 nM.
Consider `[2H]C([2H])(C1CCOCC1)N1C[C@H]2C[C@H](Nc3ccc(-c4ccc(NC(=O)C5CC5)cc4)nn3)C[C@H]2C1` [Compound A35, N-(4-(6-(((3aR,5s,6aS)-2-((tetrahydro-2H-pyran-4-yl)methyl-d2)octahydrocyclopenta[c]pyrrol-5-yl)amino)pyridazin-3-yl)phenyl)cyclopropanecarboxamide], for which, under setting [1], the remaining activity at 30 µM turned out to be 4%. Also, the IC50 (M4/Gqi5/CHO-K1 cells) was found to be 1.2 nM.
In the same order, the values of `[2H]C([2H])([C@H]1CCCCO1)N1C[C@H]2C[C@H](Nc3ccc(-c4cc(F)cc(C(=O)NC)c4)nn3)C[C@H]2C1` [Compound A87, 3-fluoro-N-methyl-5-(6-(((3aR,5s,6aS)-2-(((R)-tetrahydro-2H-pyran-2-yl)methyl-d2)octahydrocyclopenta[c]pyrrol-5-yl)amino)pyridazin-3-yl)benzamide] are 4% and 0.9 nM.
In the same order, the values of `[2H]C([2H])([2H])NC(=O)c1cccc(-c2ccc(N[C@H]3C[C@@H]4CN(CC5CCOCC5)C[C@@H]4C3)nn2)c1` (single isomer, unassigned) [Compound A47] are 4% and 10 nM.
As for `[2H]C([2H])(C1CCOC(C)(C)C1)N1C[C@H]2C[C@H](Nc3ccc(-c4cc(F)cc(C(=O)NC)c4)nn3)C[C@H]2C1` (stereo partly drawn) [Compound A83, 3-(6-(((3aR,5s,6aS)-2-((2,2-dimethyltetrahydro-2H-pyran-4-yl)methyl-d2)octahydrocyclopenta[c]pyrrol-5-yl)amino)pyridazin-3-yl)-5-fluoro-N-methylbenzamide], the remaining activity at 30 µM under setting [1] came out at 4%. Under “M4/Gqi5/CHO-K1 cells”, the IC50 came out at 2.7 nM.
In the same order, the values of `CC1(O)CN(C(=O)c2ccc(-c3ccc(N[C@H]4C[C@@H]5CN(CC6CCOCC6)C[C@@H]5C4)nn3)cc2)C1` [Compound A23, (3-hydroxy-3-methylazetidin-1-yl)(4-(6-(((3aR,5s,6aS)-2-((tetrahydro-2H-pyran-4-yl)methyl)octahydrocyclopenta[c]pyrrol-5-yl)amino)pyridazin-3-yl)phenyl)methanone] are 3% and 15 nM.
In the same order, the values of `[2H]C([2H])([2H])NC(=O)c1ccccc1-c1ccc(N[C@H]2C[C@@H]3CN(C([2H])([2H])C4CCOCC4)C[C@@H]3C2)nn1` [Compound A53, N-(methyl-d3)-2-(6-(((3aR,5s,6aS)-2-((tetrahydro-2H-pyran-4-yl)methyl-d2)octahydrocyclopenta[c]pyrrol-5-yl)amino)pyridazin-3-yl)benzamide] are 4% and 200 nM.
In the same order, the values of `[2H]C([2H])(C1CCOCC1)N1C[C@H]2C[C@H](Nc3ccc(-c4cccc(C(=O)NCC)c4)nn3)C[C@H]2C1` [Compound A46, N-ethyl-3-(6-(((3aR,5s,6aS)-2-((tetrahydro-2H-pyran-4-yl)methyl-d2)octahydrocyclopenta[c]pyrrol-5-yl)amino)pyridazin-3-yl)benzamide] are 4% and 20 nM.
For the molecule `[2H]C([2H])(C1CCOCC1)N1C[C@H]2C[C@H](Nc3ccc(-c4ccc(C(=O)NC5CC5)cc4)nn3)C[C@H]2C1` [Compound A34, N-cyclopropyl-4-(6-(((3aR,5s,6aS)-2-((tetrahydro-2H-pyran-4-yl)methyl-d2)octahydrocyclopenta[c]pyrrol-5-yl)amino)pyridazin-3-yl)benzamide], the remaining activity at 30 µM under setting [1] amounted to 4%. The IC50 (M4/Gqi5/CHO-K1 cells) was 1.1 nM.
The corresponding values for `[2H]C([2H])(C1CCOCC1)N1C[C@H]2C[C@H](Nc3ccc(-c4cccc(C(=O)NC5CC5)c4)nn3)C[C@H]2C1` [Compound A33, N-cyclopropyl-3-(6-(((3aR,5s,6aS)-2-((tetrahydro-2H-pyran-4-yl)methyl-d2)octahydrocyclopenta[c]pyrrol-5-yl)amino)pyridazin-3-yl)benzamide] are 3% and 22 nM.
The corresponding values for `[2H]C([2H])([C@H]1COCCO1)N1C[C@H]2C[C@H](Nc3ccc(-c4cccc(C(=O)NC)c4)nn3)C[C@H]2C1` [Compound A77, 3-(6-(((3aR,5s,6aS)-2-(((S)-1,4-dioxan-2-yl)methyl-d2)octahydrocyclopenta[c]pyrrol-5-yl)amino)pyridazin-3-yl)-N-methylbenzamide] are 4% and 45 nM.
The corresponding values for `[2H]C([2H])(C1CCOCC1)N1C[C@H]2C[C@H](Nc3ccc(-c4ccccc4C(=O)NCC)nn3)C[C@H]2C1` [Compound A59, N-ethyl-2-(6-(((3aR,5s,6aS)-2-((tetrahydro-2H-pyran-4-yl)methyl-d2)octahydrocyclopenta[c]pyrrol-5-yl)amino)pyridazin-3-yl)benzamide] are 6% and 170 nM.
Regarding `[2H]C([2H])([2H])NC(=O)c1ccc(-c2ccc(N[C@H]3C[C@@H]4CN(C([2H])([2H])C5CCOCC5)C[C@@H]4C3)nn2)cc1` (single isomer, unassigned) [Compound A55], the remaining activity at 30 µM (CHO-K1, read-out: Human M4 Emin (% ACh maximum at 30 μM)) is 3%. The IC50 (M4/Gqi5/CHO-K1 cells) came to 5.1 nM.
